Like-named read-outs stand apart in the source and are kept apart here.
What was measured:
U937 cells = test: Counter screen: cell viability without TSQ cocktail (off target effect); format: cell-based; settings: U937 without TSQ cocktail; for Off target effect (% cell death) at 500 nM: compound at 500 nM; for Off target effect (% cell death) at 1 uM: compound at 1 uM; for Off target effect (% cell death) at 5 uM: compound at 5 uM; for Off target effect (% cell death) at 10 uM: compound at 10 uM
Method: In parallel, all compounds are tested for their ability to affect cell viability. The same U937 cells are treated with compound in DMSO without the TSQ cocktail. This counter screen enables evaluation of off-target effects. In this case gain, cell viability is measured by flow cytometry after PI staining.

[1] = system: U937 human histiocytic leukemia cell line; test: Screening for inhibition of TSQ induced necroptosis, 96 well plate format; format: cell-based
Method: Screening Compounds for Inhibition of TSQ Induced Necroptosis, 96 Well Plate Format.
U937 human histiocytic leukemia cell line.
35,000 per well in 120 μL of media, counted and plated immediately prior to addition of inhibitor and death stimuli. Final well volume of 150 μL after addition of compounds and death stimuli
HTRPMI (WEHI Media kitchen, contains L-Glutamine and penicillin, streptomycin)—supplemented with 7.4% v/v FCS (Gibco, Precision Plus. Lot #1221437)
48 hours following addition of compounds and death stimuli
DMSO Final Concentration (% v/v): 0.2%
Compounds that are in the Death Stimulation Cocktail and their Final Concentrations: • hTNF-Fc (100 ng/ml)—produced by Silke lab, WEHI • Compound A (500 nM)—Smac mimetic, Tetralogic • Q-VD-OPh (10 μM)—MP Biomedicals
Analysis: • Cells treated with PI staining (1 μg/ml) and analysed by flow cytometry
TNF; S: Smac mimetic; Q: Q-VD-OPh): TSQ treatment ensures that cells specifically undergo necroptotic cell death. TNF activates the TNF receptor, Smac mimetic direct the signal away from proinflammatory signaling and toward the RIP1/RIP3-mediated cell death pathways, and Q-VD-OPh ensures that the apoptotic response is blocked leaving only the programmed necrosis response. The compounds' activity (solution in DMSO) tested in this TSQ-induced assay is evaluated by measuring their ability to block cell death as measured by flow cytometry after PI staining.

wild type U937 cells = test: Cell death assay, TSQ-induced necroptosis in U937 cells (PI, flow cytometry); format: cell-based, human; settings: for IC50: Homo sapiens
From the text: (§1) Mouse dermal fibroblasts (MDFs) were isolated from three MlkI^−/− mice and three congenic wild type mice and then immortalized by SV40 large T antigen to generate three biologically independent cell lines, as described in Murphy J M, et al. (2013), Immunity 39(3):443-453. Immortalized MDFs were similarly prepared from three Ripk3^−/− mice and congenic wild type mice. MDFs and HEK293T were maintained in Dulbecco's modified Eagle's medium (DMEM) supplemented with 8-10% v/v fetal calf serum (FCS), and 5 μg/mL puromycin for lines stably transduced with inducible expression constructs for MLKL. U937 cells were cultured in RPMI1640 supplemented with 8% v/v FCS. Cell death assays were carried out in 24 well plates, seeding 1×10^5 cells per well. Cells attached over 4 h in the presence of 10 ng/mL doxycycline or 20 ng/mL were then treated with assorted combinations of Necrostatin (50 μM) and Q-VD-OPh (5 μM) 30 min prior to addition of TNF (100 ng/mL) and Smac mimetic (500 nM). After 24 h for MDF cells or 48 h for U937 cells, cells were harvested and PI positive cells (1 μg/mL) quantified using a BD FACSCalibur flow cytometer.

[2] = biological target: T1, human MLKL(190-471) pseudokinase domain (Homo sapiens, UniProt Q8NB16); test: Surface Plasmon Resonance (SPR) binding, human MLKL; parameters: made in house; host or cells: Sf21 insect cells; settings: read-out: Affinity (Kd) as determined by SPR
T1 sequence (Q8NB16 190-471): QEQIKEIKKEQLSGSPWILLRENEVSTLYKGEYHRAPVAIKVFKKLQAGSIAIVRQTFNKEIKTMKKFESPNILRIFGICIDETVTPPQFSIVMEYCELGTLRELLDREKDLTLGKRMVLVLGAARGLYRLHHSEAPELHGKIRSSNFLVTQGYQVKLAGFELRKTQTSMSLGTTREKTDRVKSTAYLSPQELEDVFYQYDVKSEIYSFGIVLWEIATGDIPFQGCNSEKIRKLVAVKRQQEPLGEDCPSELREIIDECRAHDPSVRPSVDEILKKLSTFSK
From the text: Double His-tagged MLKL and an unrelated negative control reference protein were immobilized on an NTA Capture chip charged with Ni^2+ according to manufacturer's instructions. In some instances, double His-tagged proteins were captured via Ni^2+/NTA chelation on a series S sensor chip containing carboxymethylated dextran surface pre-immobilized with nitrilotriacetic acid (NTA). The surface was then activated and enhanced with NHS/EDC mixture and His captured proteins covalently coupled to the surface as succinamide esters. Ethanolamine was injected later to block any unreacted esters. Unbound Ni^2+ and non-covalently bound proteins were eluted by EDTA injections.
Typical immobilization levels were 2000-3000 Response Units (RU). Flow cell 1 was left blank as a reference surface. Immobilization experiments were carried out at 25° C. in a running buffer containing 20 mM HEPES (pH 8.0), 200 mM NaCl and 0.005% (v/v) surfactant P20.
Binding experiments were carried out in Running Buffer+2% v/v DMSO. […] Data were reduced, solvent corrected, and double referenced by Biacore T200 Evaluation Software. Data were fit globally to a two state kinetic interaction model and the Kd determined from the (kd/ka) ratio. A 1:1 binding stoichiometry was inferred from the steady state binding curves and the maximum observed Response Unit (RU) levels.

[3] = biological target: T2, human MLKL ATP-binding site (Homo sapiens, UniProt Q8NB16); test: Complex between compound and human MLKL (FIG. 5); settings: FIG. 5 (A) and (B)
T2 sequence (Q8NB16 1-471): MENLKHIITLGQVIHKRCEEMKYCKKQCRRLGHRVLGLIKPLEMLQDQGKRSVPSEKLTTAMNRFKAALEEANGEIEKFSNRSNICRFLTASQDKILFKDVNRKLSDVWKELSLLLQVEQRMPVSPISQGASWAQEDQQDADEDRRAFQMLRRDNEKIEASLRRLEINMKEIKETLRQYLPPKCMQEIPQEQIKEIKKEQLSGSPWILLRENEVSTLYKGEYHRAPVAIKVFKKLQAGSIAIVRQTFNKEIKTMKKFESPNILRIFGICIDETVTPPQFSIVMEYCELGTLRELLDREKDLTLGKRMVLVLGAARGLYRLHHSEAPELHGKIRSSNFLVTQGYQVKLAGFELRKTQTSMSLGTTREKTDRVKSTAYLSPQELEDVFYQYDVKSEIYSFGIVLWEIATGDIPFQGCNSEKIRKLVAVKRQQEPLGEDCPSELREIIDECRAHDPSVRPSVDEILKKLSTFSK

[4] = system: wild type MDFs (mouse dermal fibroblasts); test: Cell death assay, TSQ-induced necroptosis in MDFs (PI, flow cytometry); format: cell-based; settings: wild type MDFs; at same or less than 1 μM
From the text: as §1

[5] = U-937, U937, TSQ, 48 hours, unit not given in Table 2 (titrations given in nM), read-out: Cell based assay IC50
[6] = U-937, Table 1, U937 cells, TSQ-induced necroptosis, read-out: Inhibition of necroptosis (IC50)
[7] = U-937, U937, TSQ, 48 hours, average IC50, unit not given in Table 2 (titrations in nM), read-out: Cell based assay Average
[8] = U-937, 48 h, read-out: Cell based assay Average
[9] = U-937, 48 h, read-out: Cell based assay IC50

Compound	Off target effect (% cell death) at 500 nM (U937 cells) [%]	Off target effect (% cell death) at 1 uM (U937 cells) [%]	Off target effect (% cell death) at 5 uM (U937 cells) [%]	Off target effect (% cell death) at 10 uM (U937 cells) [%]	IC50 [1, 5] [nM]	IC50 (wild type U937 cells; [6]) [nM]	Kd [2] [nM]	IC50 [1, 7] [nM]	binding site in complex with human MLKL [3]	IC50 [1, 8] [nM]	IC50 [1, 9] [nM]	IC50 (wild type U937 cells; U-937, read-out: Inhibition of necroptosis (IC50)) [nM]	inhibition of TSQ-induced necroptosis (wild type U937 cells; wild type U937 cells)	inhibition of TSQ-induced necroptosis [4]
CN(c1ccc(NC(=O)Nc2ccccc2)cc1)c1ccnc(Nc2cccc(S(N)(=O)=O)c2)n1 [Compound 2]	24	23	32	87	123	400 to 800	1300	–	–	–	–	–	–	–
CN(c1ccc(NC(=O)Nc2cc(C(F)(F)F)ccc2F)cc1)c1ccnc(Nc2cccc(S(N)(=O)=O)c2)n1 [Compound 3]	40	72	86	84	3.31	1 to 5	–	15.3	binds within the ATP-binding site of human MLKL	–	–	–	–	–
CN(c1ccc(NC(=O)Nc2ccc(OC(F)(F)F)cc2)cc1)c1ccnc(Nc2ccc(S(N)(=O)=O)cc2)n1 [Compound 4, 4-(4-(Methyl(4-(3-(4-(trifluoromethoxy)phenyl)ureido)phenyl)amino)pyrimidin-2-ylamino)benzenesulfonamide]	–	–	–	–	–	–	4700	–	–	> 5000	1460	> 1000	–	–
Cc1ccc(Nc2nccc(N(C)c3ccc(NC(=O)Nc4ccc(OC(F)(F)F)cc4)cc3)n2)cc1S(N)(=O)=O [Compound 21, 2-Methyl-5-((4-(methyl(4-(3-(4-(trifluoromethoxy)phenyl)ureido)phenyl)amino)pyrimidin-2-yl)amino) benzenesulfonamide]	<20	<20	51	79	72.7	–	–	58.4	–	–	–	–	–	–
CN(c1ccc(NC(=O)C(C)(C)c2ccc(OC(F)(F)F)cc2)cc1)c1ccnc(Nc2cccc(S(N)(=O)=O)c2)n1 [Compound 22, 2-methyl-N-(4-(methyl(2-((3-sulfamoylphenyl)amino)pyrimidin-4-yl)amino)phenyl)-2-(4-(trifluoromethoxy)phenyl)propanamide]	<20	<20	35	80	–	–	–	204	–	–	–	–	–	–
COCCNS(=O)(=O)c1cccc(Nc2nccc(N(C)c3ccc(NC(=O)Nc4ccc(OC(F)(F)F)cc4)cc3)n2)c1 [Compound 23, N-(2-Methoxyethyl)-3-(4-(methyl(4-(3-(4-(trifluoromethoxy)phenyl)-ureido)phenyl)amino)pyrimidin-2-ylamino)benzenesulfonamide]	21	21	22	64	39	–	–	43.9	–	–	–	–	–	–
NS(=O)(=O)c1cccc(Nc2nccc(N(c3ccc(NC(=O)Nc4ccc(OC(F)(F)F)cc4)cc3)C3CC3)n2)c1 [Compound 24, 3-((4-(Cyclopropyl(4-(3-(4-(trifluoromethoxy)phenyl)ureido)-phenyl)amino)-pyrimidin-2-yl)amino)benzenesulfonamide]	20	21	66	80	–	–	–	–	–	176	144	–	–	–
CN(c1ccc(NC(=O)Nc2ccc(OC(F)(F)F)cc2)cc1)c1ccnc(Nc2cccc(S(C)(=O)=O)c2)n1 [Compound 25, 1-(4-(Methyl(2-((3-(methylsulfonyl)phenyl)amino)pyrimidin-4-yl)amino)phenyl)-3-(4-(trifluoromethoxy)phenyl)urea]	<20	<20	43	86	21.7	–	–	32.9	–	–	–	–	–	–
CCN(c1ccc(NC(=O)Nc2ccc(OC(F)(F)F)cc2)cc1)c1ccnc(Nc2cccc(S(N)(=O)=O)c2)n1 [Compound 26, 3-((4-(ethyl(4-(3-(4-(trifluoromethoxy)phenyl)ureido)phenyl)-amino)pyrimidin-2-yl)amino)benzenesulfonamide]	<20	<20	43	69	–	–	–	–	–	93.6	126	–	–	–
CN(c1ccc(NC(=O)Nc2ccc(OC(F)(F)F)cc2)cc1)c1ccnc(Nc2cccc(CS(C)(=O)=O)c2)n1 [Compound 27, 1-(4-(Methyl(2-((3-((methylsulfonyl)methyl)phenyl)amino)pyrimidin-4-yl)amino)phenyl)-3-(4-(trifluoromethoxy)phenyl)urea]	24	20	33	84	191	–	–	114	–	–	–	–	–	–
CNC(=O)c1cc(Oc2ccc(NC(=O)Nc3ccc(Cl)c(C(F)(F)F)c3)cc2)ccn1 [Sorafenib, reference compound]	–	–	–	–	–	–	–	–	–	–	–	–	did not inhibit	did not inhibit
